Measurements as given in US7691965B2, “Helical synthetic peptides that stimulate cellular cholesterol efflux” (The Regents of the University of California, priority 2002, dated 2010).
Where a SMILES comes first, the peptide text is derived from it.

Columns and labels:
[1] = Relative lipid binding affinity by surface balance technique (monolayer exclusion pressure); assay type: physicochemical; conditions: for Monolayer exclusion pressure: surface balance technique
Description: (§1) Relative Lipid Binding Affinity, Hydrophobicity, and Amphiphilicity of Synthetic Peptides—In some experiments, the relative lipid binding affinity of unique peptides was quantified using a surface balance technique (Gillotte, K L. et al., J. Biol. Chem., 274:2021-2028 (1999)). For routine analyses, a turbid solution of dimyristoylphosphatidylcholine (DMPC) was used to assess the relative capacity of synthetic peptides to solubilize phospholipid as described (Palgunachari, M. N. et al., Arterioscler. Thromb. Vasc. Biol., 16:328-338 (1996); McLean, L. R. and Hagaman, K. A., Biochim. Biophys. Acta, 1167:289-295 (1993)). The DMPC was used at a final concentration of 0.08 mg/ml in 10 mM Tris-saline (pH 7.4). The final weight ratio of peptides relative to DMPC was 1:1. The absorbance (400 nm) of samples was monitored continuously over a period of 30 min at 25° C. Hydrophobicity of helical peptides was calculated using the consensus scale (Eisenberg D., Annu. Rev. Biochem., 53:593-623 (1984)). The hydrophobic moment (kcal/mol) of synthetic peptides, which is a measure of helix amphiphilicity, was calculated as described by Eisenberg et al. (Eisenberg, D. et al., Nature, 299:371-374 (1982)).

[2] = DMPC clearance assay (solubilization of a turbid phospholipid solution); assay type: physicochemical
Description: as §1, with “Peptides-In” for “Peptides—In”, “[…].,” for “Hagaman, K. A.,”

ABCA1 [3] = biological target: T1, ABCA1 (Mus musculus, UniProt P41233); test: Cellular cholesterol efflux from [3H]cholesterol-labeled J774 macrophages with and without cAMP analog; assay type: cell-based; set-up: endogenous in cells; host or cells: J774 macrophages treated with a cAMP analog (CPT-cAMP or 8-bromo-cAMP); conditions: for concentration at which cholesterol efflux reached maximal levels: cAMP-treated J774 cells; for ABCA1-dependent cholesterol efflux (result in words): lipid-free acceptor, J774 macrophages with vs without cAMP analog
T1 sequence (P41233 whole entry): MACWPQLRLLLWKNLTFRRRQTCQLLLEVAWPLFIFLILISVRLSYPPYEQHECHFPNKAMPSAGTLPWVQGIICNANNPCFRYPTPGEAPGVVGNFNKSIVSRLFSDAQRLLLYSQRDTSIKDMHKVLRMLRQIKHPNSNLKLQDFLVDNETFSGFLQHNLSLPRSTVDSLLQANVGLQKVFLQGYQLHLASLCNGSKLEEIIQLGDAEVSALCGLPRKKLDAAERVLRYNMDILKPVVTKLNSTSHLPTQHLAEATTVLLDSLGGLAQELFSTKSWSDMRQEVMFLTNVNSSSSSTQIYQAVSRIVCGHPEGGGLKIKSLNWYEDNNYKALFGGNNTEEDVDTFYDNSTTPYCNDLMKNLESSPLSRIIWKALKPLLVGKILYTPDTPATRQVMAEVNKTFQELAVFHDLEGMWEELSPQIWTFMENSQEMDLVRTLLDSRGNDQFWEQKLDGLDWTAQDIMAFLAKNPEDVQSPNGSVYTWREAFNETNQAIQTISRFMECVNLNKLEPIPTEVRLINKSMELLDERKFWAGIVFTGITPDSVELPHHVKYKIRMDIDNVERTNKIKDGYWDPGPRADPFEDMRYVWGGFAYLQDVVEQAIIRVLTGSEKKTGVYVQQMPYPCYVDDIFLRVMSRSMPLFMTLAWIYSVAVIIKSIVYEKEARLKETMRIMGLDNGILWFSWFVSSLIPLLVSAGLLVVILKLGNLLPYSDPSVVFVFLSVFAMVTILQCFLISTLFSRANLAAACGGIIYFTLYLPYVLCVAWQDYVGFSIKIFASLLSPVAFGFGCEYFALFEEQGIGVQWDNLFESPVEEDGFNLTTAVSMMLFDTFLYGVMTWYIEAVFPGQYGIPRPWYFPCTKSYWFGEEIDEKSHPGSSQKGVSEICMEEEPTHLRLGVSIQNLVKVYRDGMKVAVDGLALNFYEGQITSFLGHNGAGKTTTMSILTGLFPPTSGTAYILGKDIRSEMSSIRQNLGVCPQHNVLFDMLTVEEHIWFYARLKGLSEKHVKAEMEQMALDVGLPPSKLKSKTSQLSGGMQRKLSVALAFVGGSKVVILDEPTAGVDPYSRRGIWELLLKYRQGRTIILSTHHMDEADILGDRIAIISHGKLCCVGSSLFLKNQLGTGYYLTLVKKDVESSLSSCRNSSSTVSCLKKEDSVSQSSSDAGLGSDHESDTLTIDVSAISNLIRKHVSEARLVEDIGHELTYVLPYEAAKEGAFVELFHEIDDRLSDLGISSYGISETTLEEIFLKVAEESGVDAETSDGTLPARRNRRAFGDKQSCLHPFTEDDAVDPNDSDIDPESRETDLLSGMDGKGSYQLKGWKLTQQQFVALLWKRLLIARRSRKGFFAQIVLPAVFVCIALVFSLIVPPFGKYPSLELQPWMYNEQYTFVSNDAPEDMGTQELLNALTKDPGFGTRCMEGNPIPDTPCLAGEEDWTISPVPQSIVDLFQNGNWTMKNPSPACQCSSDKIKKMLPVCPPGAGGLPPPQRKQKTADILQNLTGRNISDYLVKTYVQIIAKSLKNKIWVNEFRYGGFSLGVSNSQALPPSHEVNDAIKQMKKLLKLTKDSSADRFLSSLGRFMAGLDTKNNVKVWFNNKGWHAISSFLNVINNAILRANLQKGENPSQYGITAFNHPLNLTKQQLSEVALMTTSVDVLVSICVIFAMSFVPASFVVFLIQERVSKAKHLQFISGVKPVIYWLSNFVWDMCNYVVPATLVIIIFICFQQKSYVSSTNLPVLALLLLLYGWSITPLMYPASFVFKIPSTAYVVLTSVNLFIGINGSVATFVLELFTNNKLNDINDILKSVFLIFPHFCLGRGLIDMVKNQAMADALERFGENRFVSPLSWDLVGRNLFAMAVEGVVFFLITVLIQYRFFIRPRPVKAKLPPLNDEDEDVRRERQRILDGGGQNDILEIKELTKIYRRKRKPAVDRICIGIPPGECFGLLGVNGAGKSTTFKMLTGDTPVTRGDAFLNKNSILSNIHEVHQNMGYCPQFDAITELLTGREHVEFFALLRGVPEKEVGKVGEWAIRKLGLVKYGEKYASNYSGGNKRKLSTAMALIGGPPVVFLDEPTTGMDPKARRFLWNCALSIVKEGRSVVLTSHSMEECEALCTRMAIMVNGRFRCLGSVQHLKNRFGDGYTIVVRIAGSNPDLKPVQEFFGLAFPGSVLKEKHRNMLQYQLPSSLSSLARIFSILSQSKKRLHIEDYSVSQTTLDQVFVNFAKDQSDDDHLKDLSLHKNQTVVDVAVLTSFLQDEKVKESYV
Description: Suitable cholesterol efflux assays are described in, e.g., Bielicki, J. K and Oda, M. N., Biochemistry, 41:2089-2096 (2002); Jia, Z. et al., Biochem. Biophys. Res. Common., 297:206-213 (2002). In some embodiments, a polypeptide known to mediate cholesterol efflux (e.g., helix 9/10 of Apo A-I) is used to screen for additional mediators of cholesterol efflux in a cell based assay. For example, cell lines in which cholesterol efflux can be enhanced using a cAMP analog that up-regulates ABCA1 protein expression (e.g., J774 macrophages) can conveniently be used to assess the ability of an Apo A-I, Apo A-II, Apo A-IV, Apo E, Apo C-I, Apo C-II, Apo C-III, or Serum Amyloid A peptide to mediate cholesterol efflux. The cells are incubated with labeled cholesterol (e.g., [^3H]cholesterol) under conditions appropriate for cholesterol uptake by the cells. cAMP or cAMP analogs (e.g., CPT-cAMP) is incubated with the cells for a suitable time before the initiation of cellular cholesterol efflux, i.e., prior to contacting the cells with helix 9/10 of Apo A-I or the test compound. Measurement of labeled cholesterol appearing in the medium is used to determine the cholesterol efflux mediating activity of the test compound.
Cellular Cholesterol Efflux Protocol—J774 macrophages were used to assess the cholesterol efflux properties of synthetic amphipathic α-helical peptides (Bielicki, J. K and Oda, M. N., Biochemistry, 41:2089-2096 (2002); Jia, Z. et al., Biochem. Biophys. Res. Common., 297:206-213 (2002)). This cell line was chosen because cholesterol efflux can be enhanced using a cAMP analog that up-regulates ABCA1 protein expression. The cells were seeded onto 24-well culture plates and labeled for 48 h with [^3H]cholesterol in RPMI 1640 supplemented with 1% fetal bovine serum. The cAMP analog CPT-cAMP was added (0.3 mM, final concentration) to the cells at least 12 h before the initiation of cellular cholesterol efflux. Synthetic peptides in lipid-free form were added to cells in serum-free RPMI. The lipid-free form of full-length recombinant apoA-I was used as a positive control to define apparent ABCA1-dependent cholesterol efflux in the presence and absence of cAMP stimulation. Efflux results were expressed as a percentage of the initial cellular [^3H] appearing in the medium as a function of time subtracting the background efflux obtained using serum-free medium alone.

ABCA1 [4] = biological target: T1, ABCA1; test: ABCA1 stabilization: immunoblot of ABCA1 protein in J774 macrophage membranes after cAMP withdrawal; assay type: cell-based; set-up: J774 macrophages were used to assess relative ABCA1 protein levels in the presence and absence of synthetic peptides; endogenous in cells; host or cells: J774 macrophages treated with a cAMP analog (CPT-cAMP or 8-bromo-cAMP); conditions: 20 μg/ml peptide, 6 h without cAMP, J774 macrophages
Description: J774 macrophages were incubated (18 h) with 0.5 mM 8-bromo-cAMP in medium containing 0.1% bovine serum albumin to up-regulate ABCA1 protein expression. Washed cells were subsequently exposed for 6 h to bovine serum albumin medium with (+) or without (−) 8-bromo-cAMP and the indicated synthetic peptides (20 μg/ml). None refers to no peptides. The cellular membrane content of ABCA1 protein was measured by immunoblot analysis.
ABCA1 Stabilization—J774 macrophages were used to assess relative ABCA1 protein levels in the presence and absence of synthetic peptides. Cells were grown in 10% fetal bovine serum, extensively rinsed, and incubated (18 h) with Dulbecco's modified Eagle's medium containing 0.1% bovine serum albumin plus the cAMP analog 8-bromo-cAMP. Cells were next exposed to synthetic peptides or serum-free medium in the absence of the cAMP stimulus to evaluate whether ABCA1 protein was stabilized or degraded. Relative levels of ABCA1 protein were assessed by immunoblot analysis of cell membranes (Oram, J. F. et al., J. Biol. Chem., 278:52379-52385 (2003)). ABCA1 was visualized using an enhanced chemiluminescence detection assay.
To assess ABCA1 stabilization, J774 macrophages were treated with a cAMP analog to up-regulate ABCA1 protein expression and then incubated for 6 h without cAMP. In the absence of inducer, ABCA1 protein is rapidly degraded in these cells (FIG. 9). […] Thus, it appears that the helical combinations that stimulate cholesterol efflux also stabilize the ABCA1 transporter.

ABCA1 [5] = biological target: T1, ABCA1; test: as above; assay type: cell-based; set-up: J774 macrophages were used to assess relative ABCA1 protein levels in the presence and absence of synthetic peptides; endogenous in cells; host or cells: J774 macrophages treated with a cAMP analog (CPT-cAMP or 8-bromo-cAMP); conditions: concentration dependence studies, J774 macrophages

Row | SMILES | lipid binding affinity (surface balance technique), result in words [1] | Monolayer exclusion pressure [1] | DMPC clearance [2] | concentration at which cholesterol efflux reached maximal levels (ABCA1 [3]) | ABCA1-dependent cholesterol efflux (result in words) (ABCA1 [3]) | ABCA1 stabilization (result in words) (ABCA1 [4]) | lowest concentration that prevented ABCA1 degradation (ABCA1 [5]) | potency in mediating ABCA1-dependent cholesterol efflux relative to the 1/9 chimera (ABCA1 [3]; FIGS. 2B versus 3C) | concentration giving maximal ABCA1 stabilization and cholesterol efflux (ABCA1 [3]; both ABCA1 stabilization and cholesterol efflux)
1 | CC(=O)N[C@@H](CC(C)C)C(=O)N[C@@H](CCCCN)C(=O)N[C@@H](CC(C)C)C(=O)N[C@@H](CC(C)C)C(=O)N[C@@H](CC(=O)O)C(=O)N[C@@H](CC(N)=O)C(=O)N[C@@H](Cc1c[nH]c2ccccc12)C(=O)N[C@@H](CC(=O)O)C(=O)N[C@@H](CO)C(=O)N[C@H](C(=O)N[C@H](C(=O)N[C@@H](CO)C(=O)N[C@H](C(=O)N[C@@H](Cc1ccccc1)C(=O)N[C@@H](CO)C(=O)N[C@@H](CCCCN)C(=O)N[C@@H](CC(C)C)C(=O)N[C@@H](CCCNC(=N)N)C(=O)N[C@@H](CCC(=O)O)C(=O)N[C@@H](CCC(N)=O)C(=O)N[C@@H](CC(C)C)C(=O)NCC(=O)N1CCC[C@H]1C(=O)N[C@@H](C)C(=O)N[C@@H](CC(C)C)C(=O)N[C@@H](CCC(=O)O)C(=O)N[C@@H](CC(=O)O)C(=O)N[C@@H](CC(C)C)C(=O)N[C@@H](CCCNC(=N)N)C(=O)N[C@@H](CCC(N)=O)C(=O)NCC(=O)N[C@@H](CC(C)C)C(=O)N[C@@H](CC(C)C)C(N)=O)[C@@H](C)O)[C@@H](C)O)C(C)C [Helical peptide 1/9] (Ac-LKLLDNWDSVTSTFSKLREQLGPALEDLRQGLL-NH2) | identical | 31 dynes/cm | + | 50 µg/mL | stimulated cholesterol efflux in the absence and presence of CAMP stimulation similar to full-length apoA-I | stabilized cellular ABCA1 protein to levels comparable with those observed when cells were exposed continuously to cAMP | 10 µg/mL |  | 
2 | CC(=O)N1CCC[C@H]1C(=O)N[C@@H](C)C(=O)N[C@@H](CC(C)C)C(=O)N[C@@H](CCC(=O)O)C(=O)N[C@@H](CC(=O)O)C(=O)N[C@@H](CC(C)C)C(=O)N[C@@H](CCCNC(=N)N)C(=O)N[C@@H](CCC(N)=O)C(=O)NCC(=O)N[C@@H](CC(C)C)C(=O)N[C@@H](CC(C)C)C(=O)N1CCC[C@H]1C(=O)N[C@H](C(=O)N[C@@H](CC(C)C)C(=O)N[C@@H](CCC(=O)O)C(=O)N[C@@H](CO)C(=O)N[C@@H](Cc1ccccc1)C(=O)N[C@@H](CCCCN)C(=O)N[C@H](C(=O)N[C@@H](CO)C(=O)N[C@@H](Cc1ccccc1)C(=O)N[C@@H](CC(C)C)C(=O)N[C@@H](CO)C(=O)N[C@@H](C)C(=O)N[C@@H](CC(C)C)C(=O)N[C@@H](CCC(=O)O)C(=O)N[C@@H](CCC(=O)O)C(=O)N[C@@H](Cc1ccc(O)cc1)C(=O)N[C@H](C(=O)N[C@@H](CCCCN)C(=O)N[C@@H](CCCCN)C(=O)N[C@@H](CC(C)C)C(=O)N[C@@H](CC(N)=O)C(N)=O)[C@@H](C)O)C(C)C)C(C)C [Helical peptide 9/10] (Ac-PALEDLRQGLLPVLESFKVSFLSALEEYTKKLN-NH2) |  | 36 dynes/cm | + | 25 µg/mL | stimulated cholesterol efflux in an ABCA1-dependent manner | stabilized cellular ABCA1 protein to levels comparable with those observed when cells were exposed continuously to cAMP | 10 µg/mL | 2 fold | 10 to 25 µg/mL
